“Also recorded” adds a separate entry of the source.
Key:
LDLR null mice = test: Plasma hydroxyeicosatetraenoic acid (HETE) levels in LDLR null mice fed Western diet for two weeks; format: in vivo, mouse; conditions: female LDLR null mice age 5-8 months, n=20 per group, WD two weeks, Tg6F 0.06% of diet, Ezetimibe 10 mg/kg/day
Method: The plasma from the mice in FIG. 1 was analyzed for 5-HETE as described (see, e.g., Navab et al. (2012) J. Lipid Res., 53: 437-445).
Female LDLR null mice age 5-8 months (n=20 per group) were fed standard mouse chow (Chow) or a Western diet high in cholesterol and fat (WD) or were fed WD+0.06% by weight of a freeze-dried concentrate of transgenic tomatoes expressing the apoA-I mimetic peptide 6F, which was prepared as previously described (see, e.g., Chattopadhyay et al. (2015) Pharma. Res. Per. 3: e00154; Chattopadhyay et al. (2016) J. Lipid Res. 57: 832-847; PCT Pub. Nos: WO 2013/148214 (PCT/US2013/031037), WO 2015/175968 (PCT/US2015/031134)) (Tg6F), or the mice were fed WD with Ezetimibe added to give a daily dose of 10 mg/kg body weight/day (WD+Ezetimibe), or the mice were fed WD with Tg6F added at 0.06% by weight plus Ezetimibe (each added separately to the diet) to give a daily dose of Ezetimibe of 10 mg/kg body weight; the Tg6F and Ezetimibe were mixed into WD as described previously (Chattopadhyay et al. (2016) J. Lipid. Res. 57: 832-847) (Combined Formulation), or the mice were fed WD to which was added ezetimibe-associated transgenic 6F peptide (Ez-tg6F) at 0.06% Tg6F by weight containing sufficient Ezetimibe to give a daily dose of 10 mg/kg body weight/day that was prepared as described herein. Specifically, the ezetimibe-associated Tg6F peptide (Ez-Tg6F) was made by adding the ezetimibe directly to a solution of ethyl acetate 5% acetic acid that had been incubated overnight at room temperature with freeze-dried tomato powder obtained from transgenic tomatoes expressing the 6F peptide, and which had been removed to a separate vessel as described previously (see, e.g., Chattopadhyay et al. (2015) Pharma. Res. Per. 3: e00154; Chattopadhyay et al. (2016) J. Lipid. Res. 57: 832-847) prior to addition of the ezetimibe. […] After feeding the diets for two weeks, the mice were bled and total plasma cholesterol levels were determined as described (Id.). […]

cholesterol-fed monkeys = conditions: cited from earlier work
mice = conditions: cited from earlier work

## O=C1[C@H](CC[C@H](O)c2ccc(F)cc2)[C@@H](c2ccc(O)cc2)N1c1ccc(F)cc1 [Ezetimibe, (3R,4S)-1-(4-fluorophenyl)-3-[(3S)-3-(4-fluorophenyl)-3-hydroxypropyl]-4-(4-hydroxyphenyl)azetidin-2-one]
LDLR null mice; FIG. 7-8 / FIG. 17 G-H
  plasma 5-HETE levels: equally effective; also recorded: significantly decreased plasma levels of 5-HETE
LDLR null mice; FIG. 9-10 / FIG. 17 I-J
  plasma 12-HETE levels: without effect; also recorded: failed to significantly decrease plasma 12-HETE and 15-HETE levels; also recorded: did not significantly alter plasma 12-HETE or 15-HETE levels
LDLR null mice; FIG. 11-12 / FIG. 17 K-L
  plasma 15-HETE levels: without effect; also recorded: failed to significantly decrease plasma 12-HETE and 15-HETE levels; also recorded: did not significantly alter plasma 12-HETE or 15-HETE levels
cholesterol-fed monkeys
  ED50 value (median effective dose) for inhibiting the rise in plasma cholesterol levels: 0.5 µg/kg/day
mice
  ED50 value: 700 µg/kg/day
